Patent US20240308995A1, “O-GLYCOPROTEIN-2-ACETAMIDO-2-DEOXY-3-D-GLUCOPYRANOSIDASE INHIBITORS” (BIOGEN MA INC., priority 2018, published 2024)

Assays:
[1] = target: Recombinant full length human OGA enzyme (Homo sapiens (Human), UniProt O60502); test: OGA Enzyme Inhibition Biochemical Assay; settings: 1 nM OGA, 100 μM 4-MUGlcNAc, pH 6.4
Method in brief: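 Full-length recombinant human OGA with fluorogenic 4-MUGlcNAc in McIlvaine buffer pH 6.4, 0.01% BSA; 90 min at room temperature, glycine pH 10 quench, fluorescence Ex 355/Em 460 nm. 10-point, 4-fold dilution from 20 μM; 4-parameter variable-slope fit.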

[2] = target: OGA (S400 O-GLCNAC), HEK-293T cells transfected with Tau-V5 (Homo sapiens (Human), UniProt O60502); test: Cellular OGA-Tau MSD Assay; assay type: cell-based; settings: HEK-293T cells, Tau-S400-GlcNAc MSD readout
Method in brief: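 HEK-293T cells transfected with OGA and Tau-V5 plasmids were treated overnight at 37° C with a 10-point, 3-fold titration from 1 uM. Lysates went onto V5-antibody MSD plates to capture Tau, probed with a Tau O-GlcNAc antibody and read by electrochemiluminescence; IC50 from a 4-parameter fit.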

[3] = system: P-gp (MDR1); test: MDR1-MDCK Efflux Ratio Assay; assay type: in vitro ADME; settings: dog, MDCK-MDR1, pH 7.4, MDR1-MDCK cells, 2 hr, pH 7.4; read-out: MDR1-MDCK Efflux Ratio (B-A/A-B)
Procedure: MDR1-MDCK cell monolayers were grown to confluence on microporous polyester membranes in 96-well Corning insert plates. The permeability assay buffer was Hanks' Balanced Salt Solution containing 10 mM HEPES at pH of 7.4. Loperamide (1 μM) was used as a positive control P-gp substrate. Propranolol and Bestatin (1 μM) were used as high and low permeability comparators, respectively. Test compounds or positive control P-gp substrate/permeability comprators were added to respective apical and basolateral chambers for bidirectional assessment of permeability. Receiver buffer (transport buffer supplemented with 1% bovine serum albumin) was added to respective receiver chambers. MDR1-MDCK cells were incubated with test compounds at 37° C. with 5% CO2 for 2 hr. Samples were collected from the donor chamber at both 0 and 120 minutes, and from the receiver chamber at 120 minutes. Test and control compound concentrations were determined using LC-MS/MS analysis. Each determination was performed in triplicate. The apparent permeability (Papp), efflux ratio and mass balance (percent recovery) were calculated as follows: [formula] where: dCr/dt is the cumulative concentration in the receiver compartment versus time in μM s^−1 Vr is the volume of the receiver compartment in cm^3 Vd is the volume of the donor compartment in cm^3 A is the area of the insert (0.143 cm^2 for 96-well insert) CE is the estimated experimental concentration (Time=0) of the dosing solution Cr^final is the concentration of the receiver at the end of the incubation period Cd^final is the concentration of the donor at the end of the incubation period.

[4] = Rat Liver Microsome Stability Assay; assay type: in vitro ADME; settings: rat liver microsomes, 1 uM compound

Sequence of Recombinant full length human OGA enzyme (O60502 whole entry): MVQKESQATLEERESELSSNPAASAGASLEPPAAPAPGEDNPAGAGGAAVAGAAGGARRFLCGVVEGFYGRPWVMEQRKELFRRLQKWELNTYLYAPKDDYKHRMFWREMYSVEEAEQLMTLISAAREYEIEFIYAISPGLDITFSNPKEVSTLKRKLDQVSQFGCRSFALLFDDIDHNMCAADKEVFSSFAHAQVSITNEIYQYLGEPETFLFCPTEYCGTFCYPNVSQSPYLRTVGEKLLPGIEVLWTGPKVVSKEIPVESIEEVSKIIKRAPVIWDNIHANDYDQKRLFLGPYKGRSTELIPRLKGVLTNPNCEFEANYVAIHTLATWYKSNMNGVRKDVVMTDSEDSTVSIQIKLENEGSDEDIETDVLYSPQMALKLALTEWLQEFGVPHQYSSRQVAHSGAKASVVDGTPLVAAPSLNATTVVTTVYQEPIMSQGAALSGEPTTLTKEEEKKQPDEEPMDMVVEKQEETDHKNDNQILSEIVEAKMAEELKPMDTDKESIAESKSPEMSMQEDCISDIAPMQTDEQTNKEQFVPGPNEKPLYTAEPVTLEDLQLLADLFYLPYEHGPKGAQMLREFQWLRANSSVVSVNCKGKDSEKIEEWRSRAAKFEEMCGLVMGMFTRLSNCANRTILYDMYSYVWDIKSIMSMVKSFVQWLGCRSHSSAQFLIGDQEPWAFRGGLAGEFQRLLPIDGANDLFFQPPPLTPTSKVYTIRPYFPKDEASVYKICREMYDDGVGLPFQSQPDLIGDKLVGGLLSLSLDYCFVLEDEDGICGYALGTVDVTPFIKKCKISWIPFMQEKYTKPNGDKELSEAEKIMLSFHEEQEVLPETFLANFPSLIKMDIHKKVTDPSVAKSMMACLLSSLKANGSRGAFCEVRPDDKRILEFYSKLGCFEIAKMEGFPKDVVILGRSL
Sequence of OGA (S400 O-GLCNAC), HEK-293T cells transfected with Tau-V5 (O60502 whole entry): as above

IC50 [1] [nM]	IC50 [2] [nM]	efflux ratio at 2 h [3]	RLM % Qh (%) [4] [%]	SMILES
< 1	2	2.4	74	COc1cnc(O[C@@H]2C[C@H](C)N(Cc3sc(NC(C)=O)nc3F)C2)cn1 [Example 1-105, N-(4-fluoro-5-(((2S,4R)-4-((5-methoxypyrazin-2-yl)oxy)-2-methylpyrrolidin-1-yl)methyl)thiazol-2-yl)acetamide]
< 1	2	4.1	90	COc1cc(O[C@H]2CC[C@H](C)N(Cc3sc(NC(C)=O)nc3F)C2)ncn1 [Example 1-34, N-(4-fluoro-5-(((2S,5S)-5-((6-methoxypyrimidin-4-yl)oxy)-2-methylpiperidin-1-yl)methyl)thiazol-2-yl)acetamide]
< 1	1	25.5	65	CC(=O)Nc1ncc(CN2C[C@H](Oc3cc(N4CCCC4)ncn3)C[C@@H]2C)s1 [Example 1-129, N-(5-(((2S,4R)-2-methyl-4-((6-(pyrrolidin-1-yl)pyrimidin-4-yl)oxy)pyrrolidin-1-yl)methyl)thiazol-2-yl)acetamide]
9.7	35	3.8	49	[2H][C@]1(Oc2cc(OC)ncn2)C[C@H](C)N(Cc2cnc(NC(C)=O)s2)C1 [Example 1-164, N-(5-(((2S,4S)-4-((6-methoxypyrimidin-4-yl)oxy)-2-methylpyrrolidin-1-yl-4-d)methyl)thiazol-2-yl)acetamide]
< 1	3	7.7	31	COCCOc1cc(O[C@@H]2C[C@H](C)N(Cc3sc(NC(C)=O)nc3F)C2)ncn1 [Example 1-23, N-(4-fluoro-5-(((2S,4R)-4-((6-(2-methoxyethoxy)pyrimidin-4-yl)oxy)-2-methylpyrrolidin-1-yl)methyl)thiazol-2-yl)acetamide]
< 1	2	4.7	54	CC(=O)Nc1ncc(CN2C[C@H](Oc3ccc(F)nc3)C[C@@H]2C)s1 [Example 1-115, N-(5-(((2S,4R)-4-((6-fluoropyridin-3-yl)oxy)-2-methylpyrrolidin-1-yl)methyl)thiazol-2-yl)acetamide]
< 1	1	1.2	86	CC(=O)Nc1nc(F)c(CN2C[C@H](Oc3cc(F)ccn3)C[C@@H]2C)s1 [Example 1-96, N-(4-fluoro-5-(((2S,4R)-4-((4-fluoropyridin-2-yl)oxy)-2-methylpyrrolidin-1-yl)methyl)thiazol-2-yl)acetamide]
< 1	4	8.4	43	CC(=O)Nc1nc(F)c(CN2C[C@H](Oc3cc(OC4COC4)ncn3)C[C@@H]2C)s1 [Example 1-140, N-(4-fluoro-5-(((2S,4R)-2-methyl-4-((6-(oxetan-3-yloxy)pyrimidin-4-yl)oxy)pyrrolidin-1-yl)methyl)thiazol-2-yl)acetamide]
1700	> 1000	21.8	26	CC(=O)Nc1nc(F)c(CN2C[C@@H](Oc3cc(C)nc(C)c3)C[C@H]2C)s1 [Example 1-53, N-(5-(((2R,4S)-4-((2,6-dimethylpyridin-4-yl)oxy)-2-methylpyrrolidin-1-yl)methyl)-4-fluorothiazol-2-yl)acetamide]
2	24	23.3	51	CC(=O)Nc1nc(F)c(CN2C[C@H](Oc3cc(C)nc(C)c3)C[C@H]2C)s1 (stereo in doubt) [Example 1-51, N-(5-(((2R,4R)-4-((2,6-dimethylpyridin-4-yl)oxy)-2-methylpyrrololidin-1-yl)methyl)-4-fluorothiazol-2-yl)acetamide]
< 1	3	6.1	59	CC(=O)Nc1ncc(CN2C[C@H](Oc3cnc(C)cn3)C[C@@H]2C)s1 [Example 1-69, N-(5-(((2S,4R)-2-methyl-4-((5-methylpyrazin-2-yl)oxy)pyrrolidin-1-yl)methyl)thiazol-2-yl)acetamide]
17	51	2.9	65	COc1cc(O[C@@H]2CCCN(Cc3sc(NC(C)=O)nc3F)C2)ncn1 [Example 1-33, (R)—N-(4-fluoro-5-((3-((6-methoxypyrimidin-4-yl)oxy)piperidin-1-yl)methyl)thiazol-2-yl)acetamide]
< 1	< 1	1.1	88	CC(=O)Nc1nc(F)c(CN2C[C@H](Oc3ccc(Cl)cn3)C[C@@H]2C)s1 [Example 1-90, N-(5-(((2S,4R)-4-((5-chloropyridin-2-yl)oxy)-2-methylpyrrolidin-1-yl)methyl)-4-fluorothiazol-2-yl)acetamide]
< 1	2	8.3	59	CC(=O)Nc1nc(F)c(CN2C[C@H](Oc3cnc(N4CCOCC4)cn3)C[C@@H]2C)s1 [Example 1-142, N-(4-fluoro-5-(((2S,4R)-2-methyl-4-((5-morpholinopyrazin-2-yl)oxy)pyrrolidin-1-yl)methyl)thiazol-2-yl)acetamide]
< 1	1	1.5	76	CC(=O)Nc1nc(F)c(CN2C[C@H](Oc3ccc(F)cn3)C[C@@H]2C)s1 [Example 1-47, N-(4-fluoro-5-(((2S,4R)-4-((5-fluoropyridin-2-yl)oxy)-2-methylpyrrolidin-1-yl)methyl)thiazol-2-yl)acetamide]
14	32	3.1	83	COc1cc(O[C@H]2CCCN(Cc3sc(NC(C)=O)nc3F)C2)ncn1 [Example 1-32, (S)—N-(4-fluoro-5-((3-((6-methoxypyrimidin-4-yl)oxy)piperidin-1-yl)methyl)thiazol-2-yl)acetamide]
< 1	1	5.3	45	CC(=O)Nc1nc(F)c(CN2C[C@H](Oc3ncc(F)cn3)C[C@@H]2C)s1 [Example 1-112, N-(4-fluoro-5-(((2S,4R)-4-((5-fluoropyrimidin-2-yl)oxy)-2-methylpyrrolidin-1-yl)methyl)thiazol-2-yl)acetamide]
1.3	19	6.3	50	CC(=O)Nc1nc(F)c(CN2C[C@H](Oc3cncnc3)C[C@@H]2C)s1 [Example 1-119, N-(4-fluoro-5-(((2S,4R)-2-methyl-4-(pyrimidin-5-yloxy)pyrrolidin-1-yl)methyl)thiazol-2-yl)acetamide]
1.3	5	2.9	68	CC(=O)Nc1ncc(CN2C[C@H](Oc3ccccn3)C[C@@H]2C)s1 [Example 1-14, N-(5-(((2S,4R)-2-methyl-4-(pyridin-2-yloxy)pyrrolidin-1-yl)methyl)thiazol-2-yl)acetamide]
250	> 1000	3.9	32	COc1cc(O[C@@H]2C[C@@H](C)N(Cc3cnc(NC(C)=O)s3)C2)ncn1 [Example 1-38, N-(5-(((2R,4R)-4-((6-methoxypyrimidin-4-yl)oxy)-2-methylpyrrolidin-1-yl)methyl)thiazol-2-yl)acetamide]
1	38	3.2	55	COc1cc(O[C@@H]2C[C@H](C)N(Cc3sc(NC(C)=O)nc3Cl)C2)ncn1 [Example 1-46, N-(4-chloro-5-(((2S,4R)-4-((6-methoxypyrimidin-4-yl)oxy)-2-methylpyrrolidin-1-yl)methyl)thiazol-2-yl)acetamide]

SMILES	IC50 [1] [nM]	IC50 [2] [nM]	efflux ratio at 2 h [3]	RLM % Qh (%) [4] [%]
CC(=O)Nc1ncc(CN2C[C@H](Oc3ccnc(C)c3)C[C@@H]2C)s1 [Example 1-82, N-(5-(((2S,4R)-2-methyl-4-((2-methylpyridin-4-yl)oxy)pyrrolidin-1-yl)methyl)thiazol-2-yl)acetamide]	< 1	2	16.7	38
